According to PMC8557866, “Novel Small Molecule Growth Inhibitor Affecting Bacterial Outer Membrane Reduces Extraintestinal Pathogenic Escherichia coli (ExPEC) Infection in Avian Model” (Microbiology Spectrum, 2021):
In brackets after ≈: the same amount, converted by molar mass.

How the values were obtained:
APEC O78 [1] = system: APEC O78; design: method as in PMID 30333507; settings: cited from earlier work
APEC serotype O78 = settings: for Cumulative lesion score: PC 6.2; for Mortality reduction compared to PC group: PC mortality 58.3%; for % reduction in severity, Air sacs lesions / % reduction in severity, Heart lesions / % reduction in severity, Liver lesions / % reduction in severity, Lung lesions / log reduction in APEC load, Heart / log reduction in APEC load, Kidney / log reduction in APEC load, Liver / log reduction in APEC load, Lung: vs PC; for BWG (body weight gain): in vivo
Experimental: The efficacy of GIs was assessed using commercial broiler chickens (n = 6/group). […] GI compounds (ChemBridge, San Diego, CA) dissolved in dimethyl sulfoxide (DMSO) were administered orally using a syringe, twice a day, from day 4 (1 day before APEC infection) to day 8 (3 days postinfection [dpi]). The dose of each GI is described in Table S1. […] Chickens that were infected and vehicle-treated (positive control [PC]) and noninfected and nontreated (negative control [NC]) were included as controls. On day 5, chickens were infected subcutaneously (s.c.) with rifampin-resistant (Rif^r) APEC serotype O78 ([18]) (1 × 10^7 CFU/chicken). […] To prepare the APEC inoculum for infection, Rif^r APEC O78 (50 μg/ml rifampin) was grown to logarithmic phase in LB medium, washed twice with phosphate-buffered saline (PBS), and adjusted to an optical density at 600 nm (OD600) of 0.1 (5 × 10^7 CFU/ml). The clinical signs and mortality were recorded until 7 dpi. Chickens that died during this period were necropsied on the same day, lesions in internal organs (liver, heart, lung, and air sacs) were scored as described previously ([63], [71]), and the APEC loads were quantified in internal organs (liver, heart, lung, and kidney) by plating the tissue homogenates on MacConkey agar plates containing 50 μg/ml rifampin ([18]). At 7 dpi (day 12), all live birds were euthanized, lesions were scored, and the APEC loads in internal organs were quantified as described above. The body weight of chickens was measured before GI treatment (day 3) and at the day of necropsy (day 12).

APEC = experiment: microbe, parasite or virus in culture; format: cell-based, Escherichia coli; settings: Escherichia coli
[2] = Pharmacokinetic study in plasma of chickens (LC-MS); format: in vivo; settings: plasma
Experimental: Details of the methods are included in the supplemental material. page 3: previously(3). […] The mixtures were then incubated at […] for 30 min and proteins were removed by ultracentrifugation at 13,000xg for 25 min at 2 °C.

APEC O78 [3] = experiment: Comparative efficacy of GI-7 and sulfadimethoxine, floor trial; format: in vivo, commercial broiler chickens; design: % reduction in severity, Liver lesions / % reduction in severity, Heart lesions / % reduction in severity, Lung lesions / % reduction in severity, Air sacs lesions: concentration or dose not given beside the values; Cumulative lesion score / Mean lesion score in Liver / Mean lesion score in Heart / Mean lesion score in Lung / Mean lesion score in Air sacs: scale not given here
Experimental: At day 13 (7 dpi), half of the chickens from each group, and at day 42 (slaughter age), 10 chickens from each group were necropsied and lesions and APEC loads were assessed as described above.

[4] = Quantification of residue in chicken tissues (LC-MS); format: in vivo, chickens
Description: Chickens (n = 5/time point) from an experimental set-up as described above for the floor trial were sacrificed at 2 days (day 13; 2 DPLT), 5 days (day 16; 5 DPLT), and 31 days (day 42; 31 DPLT) post-last treatment. […] Tissue samples from chickens treated with SDM were used for comparison. […] Details of the methods are included in the supplemental material.

[5] = comparative efficacy trial, vs PC
[6] = comparative efficacy, GI-7 60 mg/liter, SDM 495.3 mg/liter, 7 dpi

## CC1CCCN(CCC(=O)c2ccc(Br)cc2)C1 (stereo not shown) [GI-1]
APEC O78 [1]
  MIC: 200 µM (≈ 62 µg/mL)
APEC serotype O78; efficacy trial, oral
  Mean APEC load, Heart: 6.8 Log CFU/g tissues
  Mean APEC load, Kidney: 6.6 Log CFU/g tissues
  Mean APEC load, Liver: 6.7 Log CFU/g tissues
  Mean APEC load, Lung: 6.4 Log CFU/g tissues
  Mean lesion score in Air sacs: 1.5
  Mean lesion score in Heart: 2.0
  Mean lesion score in Liver: 2.0
  Mean lesion score in Lung: 0.7
  Cumulative lesion score: 6.2
  Mortality reduction compared to PC group: 8.3%
  % reduction in severity, Air sacs lesions: −5.9%
  % reduction in severity, Heart lesions: 4%
  % reduction in severity, Liver lesions: −20%
  % reduction in severity, Lung lesions: 33.3%
  log reduction in APEC load, Heart: -1.8 Log CFU/g tissues
  log reduction in APEC load, Kidney: -1.1 Log CFU/g tissues
  log reduction in APEC load, Liver: -2.0 Log CFU/g tissues
  log reduction in APEC load, Lung: -1.4 Log CFU/g tissues
APEC serotype O78
  BWG (body weight gain): 165.6±69.2

## COc1cc(CNCCc2ccc3ccccc3c2)ccc1OCC(O)CN1CCCC1 (stereo not shown) [GI-2]
APEC O78 [1]
  MIC: 100 µM (≈ 43.5 µg/mL)
APEC serotype O78; efficacy trial, oral
  Mean APEC load, Heart: 4.1 Log CFU/g tissues
  Mean APEC load, Kidney: 3.8 Log CFU/g tissues
  Mean APEC load, Liver: 3.4 Log CFU/g tissues
  Mean APEC load, Lung: 3.5 Log CFU/g tissues
  Mean lesion score in Air sacs: 1.2
  Mean lesion score in Heart: 1.8
  Mean lesion score in Liver: 1.7
  Mean lesion score in Lung: 0.7
  Cumulative lesion score: 5.3
  Mortality reduction compared to PC group: 25%
  % reduction in severity, Air sacs lesions: 17.7%
  % reduction in severity, Heart lesions: 12%
  % reduction in severity, Liver lesions: 0%
  % reduction in severity, Lung lesions: 33.3%
  log reduction in APEC load, Heart: 0.8 Log CFU/g tissues
  log reduction in APEC load, Kidney: 1.7 Log CFU/g tissues
  log reduction in APEC load, Liver: 0.9 Log CFU/g tissues
  log reduction in APEC load, Lung: 1.1 Log CFU/g tissues
APEC serotype O78
  BWG (body weight gain): 125.5±34.7

## COc1cc(CNCCc2ccc(C)cc2)ccc1OCC(O)CN1CCCC1 (stereo not shown) [GI-3]
APEC O78 [1]
  MIC: 100 µM (≈ 39.9 µg/mL)
APEC serotype O78; efficacy trial, oral
  Mean APEC load, Heart: 7.0 Log CFU/g tissues
  Mean APEC load, Kidney: 6.9 Log CFU/g tissues
  Mean APEC load, Liver: 6.5 Log CFU/g tissues
  Mean APEC load, Lung: 7.0 Log CFU/g tissues
  Mean lesion score in Air sacs: 1.8
  Mean lesion score in Heart: 2
  Mean lesion score in Liver: 2
  Mean lesion score in Lung: 1
  Cumulative lesion score: 6.8
  % reduction in severity, Air sacs lesions: −29.4%
  % reduction in severity, Heart lesions: 4%
  % reduction in severity, Liver lesions: −20%
  % reduction in severity, Lung lesions: 0%
  log reduction in APEC load, Heart: -2.1 Log CFU/g tissues
  log reduction in APEC load, Kidney: -1.4 Log CFU/g tissues
  log reduction in APEC load, Liver: -1.8 Log CFU/g tissues
  log reduction in APEC load, Lung: -2.0 Log CFU/g tissues
APEC serotype O78
  BWG (body weight gain): 254.6±95

## CCN1/C(=C/c2ccc3ccccc3[n+]2CC)C=Cc2ccccc21 [GI-9]
APEC O78 [1]
  MIC: 25 µM
APEC serotype O78; efficacy trial, oral
  Mean APEC load, Heart: 5.9 Log CFU/g tissues
  Mean APEC load, Kidney: 5.7 Log CFU/g tissues
  Mean APEC load, Liver: 4.7 Log CFU/g tissues
  Mean APEC load, Lung: 5.6 Log CFU/g tissues
  Mean lesion score in Air sacs: 2.7
  Mean lesion score in Heart: 3.3
  Mean lesion score in Liver: 2.5
  Cumulative lesion score: 9.7
  Mortality reduction compared to PC group: 25%
  % reduction in severity, Air sacs lesions: −88.2%
  % reduction in severity, Heart lesions: −60%
  % reduction in severity, Liver lesions: −50%
  log reduction in APEC load, Heart: -0.5 Log CFU/g tissues
  log reduction in APEC load, Kidney: -0.2 Log CFU/g tissues
  log reduction in APEC load, Liver: -0.1 Log CFU/g tissues
  log reduction in APEC load, Lung: -0.9 Log CFU/g tissues
APEC serotype O78
  BWG (body weight gain): 214.9±31.9

## CC(=O)OC(C(Br)C(=O)c1ccc([N+](=O)[O-])cc1)C(Cl)(Cl)Cl (stereo not shown) [GI-10]
APEC O78 [1]
  MIC: 25 µM (≈ 10.8 µg/mL)
APEC
  MBC: 50 µM (≈ 21.7 µg/mL)
  MIC: 25 µM (≈ 10.8 µg/mL)
APEC serotype O78; efficacy trial, oral
  Mean APEC load, Heart: 3.9 Log CFU/g tissues
  Mean APEC load, Kidney: 3.1 Log CFU/g tissues
  Mean APEC load, Liver: 3.9 Log CFU/g tissues
  Mean APEC load, Lung: 3.7 Log CFU/g tissues
  Mean lesion score in Air sacs: 1.7
  Mean lesion score in Heart: 2.2
  Mean lesion score in Liver: 1.3
  Mean lesion score in Lung: 1
  Cumulative lesion score: 6.2
  Mortality reduction compared to PC group: 41.7%
  % reduction in severity, Air sacs lesions: −17.6%
  % reduction in severity, Heart lesions: −4%
  % reduction in severity, Liver lesions: 20%
  % reduction in severity, Lung lesions: 0%
  log reduction in APEC load, Heart: 1.0 Log CFU/g tissues
  log reduction in APEC load, Kidney: 2.4 Log CFU/g tissues
  log reduction in APEC load, Liver: 0.8 Log CFU/g tissues
  log reduction in APEC load, Lung: 1.4 Log CFU/g tissues
APEC serotype O78; efficacy trial, oral, P ≤ 0.1, log rank test
  Survival of chickens: prolonged the survival
APEC serotype O78
  BWG (body weight gain): 220.8±38.9

## COc1cc(NS(=O)(=O)c2ccc(N)cc2)nc(OC)n1 [SDM, sulfadimethoxine, reference compound]
[2]; commercial broiler, po, mean ± standard deviation, read-out: Peak plasma concentration (Cmax)
  Cmax: 994 ± 167 ng/mL
[2]; commercial broiler, po, postadministration, read-out: Time to maximum concentration (Tmax)
  Tmax: 24 h
[2]; drinking water delivery
  Absorption (time at which absorbed): 2 h
APEC O78 [3]; GI-7 60 mg/liter, SDM 495.3 mg/liter in drinking water, PC mortality 41.2%
  Mortality reduction compared to PC group: 11.9%
APEC O78 [3]; comparative efficacy trial
  Mean APEC load, Heart: 5.6 Log CFU/g tissues
  Mean APEC load, Kidney: 5.5 Log CFU/g tissues
  Mean APEC load, Liver: 5.0 Log CFU/g tissues
  Mean APEC load, Lung: 6.2 Log CFU/g tissues
APEC O78 [3]; [5]
  log reduction in APEC load, Heart: 2.3 Log CFU/g tissues
  log reduction in APEC load, Kidney: 2.2 Log CFU/g tissues
  log reduction in APEC load, Liver: 2.5 Log CFU/g tissues
  log reduction in APEC load, Lung: 1.9 Log CFU/g tissues
APEC O78 [3]; comparative efficacy, 7 dpi
  Cumulative lesion score: 8.5
APEC O78 [3]; [6]
  Mean lesion score in Air sacs: 2.5
  Mean lesion score in Heart: 2.8
  Mean lesion score in Liver: 2.0
  Mean lesion score in Lung: 1.2
APEC O78 [3]; comparative efficacy, vs PC
  % reduction in severity, Air sacs lesions: 25.7%
  % reduction in severity, Heart lesions: 20.8%
  % reduction in severity, Liver lesions: 19.2%
  % reduction in severity, Lung lesions: 36.9%
APEC O78 [3]; floor trial, P < 0.1
  Survival of chickens: increased the survival
APEC O78 [3]; in vivo
  Overall BWG: 2,408.1 g
  Overall FCR: 1.49
[4]; 2 DPLT
  Residue concentration in muscle: 0.2 ± 0.1 ppm/g tissue
  Residue level in kidney: 1.0 ± 0.2 ppm/g tissue
  Residue level in liver: 0.2 ± 0.04 ppm/g tissue
[4]; 5 DPLT
  Residue concentration in muscle: 0.02 ± 0.02 ppm/g tissue
  Residue level in kidney: 1 ± 0.1 ppm/g tissue
  Residue level in liver: 0.04 ± 0.02 ppm/g tissue
[4]; 31 DPLT
  Residue concentration in muscle: 0.0 ± 0.0 ppm/g tissue
  Residue level in kidney: 0.0 ± 0.0 ppm/g tissue
  Residue level in liver: 0.0 ± 0.0 ppm/g tissue
